Source: patent US11730731B2 (INVENTAGE LAB INC., priority 2021, dated 2023)

Columns and labels:
IL-6 = assay: Multiplex protein immunoassay of IL-6 in serum of CIA mice; format: in vivo, mouse; details: Example 3, positive control groups (MTX, Xeljanz)
Method: For the measurement result, paw tissue weight of the mouse was corrected for the quantified amount of IL-6 protein. For each target joint, the hind paw was mainly used, and in order to overcome the limitation of the amount of protein extracted from the joint tissue, up to 4 inflammatory mediators were measured in one well. […]

[1] = test system: murine collagen-induced arthritis (CIA); assay: Imaging evaluation of arthritis using micro-CT, CIA mice; format: in vivo; details: Example 3, CIA mouse; MTX 1 mg/kg ip twice/week; Xeljanz 10 mg/kg oral once/day; MTX 1 mg/kg + Q-DDS 3 mg/mouse
Method: (§1) The radiographs were 3D rendered using the Quantum FX μCT imaging system (Perkin Elmer, MA), and then the radiological score was evaluated, and the bone volume ratio (Bone volume [BV]/Tissue volume [Tissue volume; TV]) and bone surface density (Bone surface area (BS)/Bone volume (BV)) were also measured. Two or more investigators performed blind evaluation for joint destruction, and the indicators in Table 17 below were used as the scoring criteria. The average value of the researchers' blind evaluation data was used as the score, and the average score of the paw tissue was calculated as the score of each group.
as §1, with “[BV]/Tissue” for “[BV]/Tissue volume [Tissue”, “TV)” for “TV])”, “(BV)), and cortical bone thickness” for “(BV))”, “researchers” for “investigators”, “above” for “below”

[2] = Safety assessment in vivo by body weight, CIA mice; details: Example 3, CIA mouse, MTX 1 mg/kg ip twice/week, Xeljanz 10 mg/kg oral once/day, MTX 1 mg/kg + Q-DDS 3 mg/mouse; for D23 body weight Mean: day 23 (baseline); for D41 body weight Mean: day 41; for Change of body weight (%, D23 body weight 100%) Mean: day 41 vs day 23
Method: The safety in vivo of the test substance was evaluated by measuring the body weight of mouse in each administration group of Example 4.1.
For the safety evaluation of the test substance, the body weight of mouse was measured daily from before the start of administration (The 23th day) to just before the end of administration (The 41th day), and the body weight (%) of the mouse for each administration group over the time (day) and the body weight on the 41th day were shown in FIG. 16A, FIG. 16B and Table 27.

[3] = test system: inflammatory mediators in arthritis tissue (IL-1β, IL-6, IL-17, TNF-α, MCP-1, MIP-2, IL-2); assay: Multiplex protein immunoassay (Luminex multi-analyte-ELISA) of inflammatory mediators in arthritic tissue; format: in vivo, mouse; details: for ELISA values in Arthritis Paw, IL-1β, Mean / ELISA values in Arthritis Paw, IL-6, Mean / ELISA values in Arthritis Paw, IL-17, Mean / ELISA values in Arthritis Paw, TNF-α, Mean: CIA mice, Example 3, positive control groups (MTX, Xeljanz); for MCP-1, ELISA values in Arthritis Paw (pg/mL) Mean / MIP-2, ELISA values in Arthritis Paw (pg/mL) Mean: MTX 1 mg/kg ip twice/week, MTX 1 mg/kg + Q-DDS 3 mg/mouse
Excerpt: In order to evaluate the inflammatory activity and confirm the mode of action of the test substance through quantitative analysis of inflammatory substances in mouse arthritis tissue and blood, inflammatory mediators were investigated at the protein level. In order to overcome the limitation of the amount of sample that can be extracted for protein analysis, a multi-analyte-ELISA (multi-analyte-ELISA) method based on Luminex technology was used to analyze the largest amount of protein in a small sample.
(§2) The mouse joint tissue obtained after treatment with the test substance in the method of Example 3.1 was pulverized through ceramic beads, and all proteins were extracted using a lysis buffer (Cat. 1713040111, Bio-Rad). Using Pro-reagent kit V, the same amount of protein (2.7 mg/mL) for each administration group was diluted ¼ and reacted with the target-binding beads in a culture dish for 30 minutes. After washing with a wash buffer, it was reacted with the target-measurement antibody for 30 minutes, and after washing with a wash buffer again, it was reacted with streptavidin-PE for 10 minutes. Thereafter, the target protein is quantitatively measured for each administration group using the Bio-Plex® 200 system (Bio-Rad). The target-binding beads were composed of a set that can be combined as needed from Bio-Plex Mouse cytokine 4-plex (IL-1β, IL-6, IL-17A, TNF-α; Cat. 171G5002M), Bio-Plex Pro Mouse Cytokine 1-plex (MCP1; Cat. 171G5019M), Bio-Plex Pro Mouse Cytokine II 1-plex (MIP2; Cat 171G6006M), and Bio-Plex Pro Mouse Cytokine 1-plea (IL-6; Cat. 171 G5007M) (all products are from Bio Rad) and were used for measurement.
For the measurement result, paw tissue weight of the mouse was corrected for the quantified target protein. For each target joint, the hind paw was mainly used, and in order to overcome the limitation of the amount of protein extracted from the joint tissue, up to 4 inflammatory mediators were measured in one well.
On the other hand, as the target protein to be measured, a representative inflammation-promoting cytokine group A (IL-1β, IL-6, IL-17, and TNF-α) among inflammatory mediators, and a chemokine group B (MCP-1 and MIP-2) among inflammatory mediators was selected to carry out the experiment. The measurement results were summarized in FIGS. 12A and 12B, and Tables 19 and 20 below. […]
as §2, with “4.1. above” for “3.1”, “171 G5002M),” for “171G5002M),”, “Cat. 171 G6006M),” for “Cat 171G6006M),”, “1-plex” for “1-plea”, “171G5007M)” for “171 G5007M)”
On the other hand, as the target protein to be measured, a representative inflammation-promoting cytokine group A (IL-1β, IL-6, IL-17, and TNF-α) among inflammatory mediators, and IL-2 and a chemokine group B (IL-2, MCP-1 and MIP-2) among inflammatory mediators were selected to carry out the experiment. The measurement results were summarized in FIGS. 18A and 18B, and Tables 29 and 30 below.

MAPKs (ERK, JNK, p38) = assay: Western blotting of MAPKs activity in LPS-treated Raw 264.7 cells; format: cell-based, mouse
Method: Western blotting was performed in the same manner as in Example 6.3. The first antibody used at this time is an antibody against p-ERK, ERK, p-JNK, JNK, p-p38, p38 and calnexin (Cell signaling, CA, USA), and the secondary antibody is anti-mouse or anti-rabbit HRP-binding secondary antibody.
Western blotting was performed in the same manner as in Example 7.4.

[4] = Example 3, CIA mouse joint tissue, Xeljanz 10 mg/kg oral once/day

| Structure (SMILES) | ELISA values in Serum, IL-6, Mean (IL-6) | Bone surface area/bone volume (mm^−1) Mean (micro-CT) [1] | Bone volume/tissue volume (%) Mean (micro-CT) [1] | Radiological score Mean (joint destruction, micro-CT) [1] | D23 body weight Mean [2] | D41 body weight Mean [2] | Change of body weight (%, D23 body weight 100%) Mean [2] | ELISA values in Arthritis Paw, IL-1β, Mean [3] | ELISA values in Arthritis Paw, IL-6, Mean [3] | ELISA values in Arthritis Paw, IL-17, Mean [3] | ELISA values in Arthritis Paw, TNF-α, Mean [3] | MCP-1, ELISA values in Arthritis Paw (pg/mL) Mean [3, 4] | MIP-2, ELISA values in Arthritis Paw (pg/mL) Mean [3, 4] | phosphorylation of MAPKs (ERK1/2, JNK, p38) (MAPKs (ERK, JNK, p38); LPS 1 ug/ml, 0.5, 1, 10, 100 uM, 30 minutes) | phosphorylation of MAPKs increased by LPS (MAPKs (ERK, JNK, p38); naltrexone 100, 200, 500, or 1000 ug/ml, Western blotting) | IL-17 protein in arthritis tissue [3, 4] | TNF-α protein in arthritis tissue [3, 4] |
| --- | --- | --- | --- | --- | --- | --- | --- | --- | --- | --- | --- | --- | --- | --- | --- | --- | --- |
| CN(Cc1cnc2nc(N)nc(N)c2n1)c1ccc(C(=O)N[C@@H](CCC(=O)O)C(=O)O)cc1 [Methotrexate, methotrexate] | 39.6 pg/mL | 6.12 mm^−1 | 31.25% | 1.67 | 22.7 g | 23.8 g | 104.7% | 1.05 pg/mL | 1.8 pg/mL | 2.269 pg/mL | 6.54 pg/mL | 76.1 pg/mL | 4.4 pg/mL | – | – | – | – |
| O=C1CC[C@@]2(O)[C@H]3Cc4ccc(O)c5c4[C@@]2(CCN3CC2CC2)[C@H]1O5 [Naltrexone, 17-(cyclopropylmethyl)-4,5α-epoxy-3,14-dihydroxymorphinan-6-one] | – | – | – | – | – | – | – | – | – | – | – | – | – | no inhibitory effect | not inhibited | – | – |
| C[C@@H]1CCN(C(=O)CC#N)C[C@@H]1N(C)c1ncnc2[nH]ccc12 [Xeljanz ®, Tofacitinib] | 94.5 pg/mL | 6.52 mm^−1 | 25.27% | 2.08 | 21.7 g | 21.6 g | 99.6% | 12.68 pg/mL | 88.6 pg/mL | 4.57 pg/mL | 24.52 pg/mL | 207.9 pg/mL | 126.8 pg/mL | – | – | 4.57 pg/mL | 24.52 pg/mL |
